Test results published in ChEMBL document CHEMBL1130474, “Conformationally restricted arginine analogues as inhibitors of human nitric oxide synthase” (Bioorg Med Chem Lett, 1997).
pKi: −log10 of the molar value.

Experiments:
[1] = target: Nitric oxide synthase, inducible (Homo sapiens, UniProt P35228); assay: Inhibitory constant for the inhibition of human Inducible nitric oxide synthase
Nitric oxide synthase 1 = Nitric oxide synthase 1 (Homo sapiens, UniProt P29475); assay: Inhibitory constant for the inhibition of human Neuronal nitric oxide synthase
Nitric oxide synthase 3 = target: T1, Nitric oxide synthase 3 (Homo sapiens, UniProt P29474); assay: Inhibitory constant for the inhibition of human Endothelial nitric oxide synthase
T1 sequence (P29474 whole entry): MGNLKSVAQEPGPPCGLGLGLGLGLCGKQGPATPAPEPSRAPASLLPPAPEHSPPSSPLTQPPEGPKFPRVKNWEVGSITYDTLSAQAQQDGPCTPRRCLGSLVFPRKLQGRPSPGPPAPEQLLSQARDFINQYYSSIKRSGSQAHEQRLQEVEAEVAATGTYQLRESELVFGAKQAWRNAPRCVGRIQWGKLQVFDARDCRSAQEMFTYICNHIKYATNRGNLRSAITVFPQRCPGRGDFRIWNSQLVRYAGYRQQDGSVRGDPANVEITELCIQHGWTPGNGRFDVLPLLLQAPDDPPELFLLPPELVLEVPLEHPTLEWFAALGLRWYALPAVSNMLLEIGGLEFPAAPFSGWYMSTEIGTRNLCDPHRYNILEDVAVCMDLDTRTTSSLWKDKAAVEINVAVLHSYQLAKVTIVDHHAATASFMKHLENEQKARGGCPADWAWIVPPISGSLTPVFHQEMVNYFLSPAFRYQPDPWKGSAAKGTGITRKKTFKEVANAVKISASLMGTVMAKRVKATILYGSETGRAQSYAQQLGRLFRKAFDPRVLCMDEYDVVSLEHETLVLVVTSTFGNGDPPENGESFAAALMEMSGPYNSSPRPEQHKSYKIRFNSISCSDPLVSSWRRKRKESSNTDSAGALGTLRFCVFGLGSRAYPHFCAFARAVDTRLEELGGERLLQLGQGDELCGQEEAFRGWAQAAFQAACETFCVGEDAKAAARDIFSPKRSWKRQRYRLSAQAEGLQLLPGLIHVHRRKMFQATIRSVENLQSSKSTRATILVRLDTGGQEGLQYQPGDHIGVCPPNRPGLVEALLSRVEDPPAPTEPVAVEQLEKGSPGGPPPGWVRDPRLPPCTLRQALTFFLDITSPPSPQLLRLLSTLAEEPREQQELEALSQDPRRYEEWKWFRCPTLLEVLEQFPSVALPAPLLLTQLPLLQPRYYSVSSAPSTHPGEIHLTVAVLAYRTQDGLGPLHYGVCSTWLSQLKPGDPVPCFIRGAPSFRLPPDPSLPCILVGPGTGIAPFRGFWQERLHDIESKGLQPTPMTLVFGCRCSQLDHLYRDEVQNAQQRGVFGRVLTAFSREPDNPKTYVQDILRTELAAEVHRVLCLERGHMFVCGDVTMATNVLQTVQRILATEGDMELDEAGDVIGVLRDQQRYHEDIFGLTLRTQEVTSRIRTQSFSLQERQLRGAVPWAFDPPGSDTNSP

Sequence of Nitric oxide synthase, inducible (P35228 whole entry): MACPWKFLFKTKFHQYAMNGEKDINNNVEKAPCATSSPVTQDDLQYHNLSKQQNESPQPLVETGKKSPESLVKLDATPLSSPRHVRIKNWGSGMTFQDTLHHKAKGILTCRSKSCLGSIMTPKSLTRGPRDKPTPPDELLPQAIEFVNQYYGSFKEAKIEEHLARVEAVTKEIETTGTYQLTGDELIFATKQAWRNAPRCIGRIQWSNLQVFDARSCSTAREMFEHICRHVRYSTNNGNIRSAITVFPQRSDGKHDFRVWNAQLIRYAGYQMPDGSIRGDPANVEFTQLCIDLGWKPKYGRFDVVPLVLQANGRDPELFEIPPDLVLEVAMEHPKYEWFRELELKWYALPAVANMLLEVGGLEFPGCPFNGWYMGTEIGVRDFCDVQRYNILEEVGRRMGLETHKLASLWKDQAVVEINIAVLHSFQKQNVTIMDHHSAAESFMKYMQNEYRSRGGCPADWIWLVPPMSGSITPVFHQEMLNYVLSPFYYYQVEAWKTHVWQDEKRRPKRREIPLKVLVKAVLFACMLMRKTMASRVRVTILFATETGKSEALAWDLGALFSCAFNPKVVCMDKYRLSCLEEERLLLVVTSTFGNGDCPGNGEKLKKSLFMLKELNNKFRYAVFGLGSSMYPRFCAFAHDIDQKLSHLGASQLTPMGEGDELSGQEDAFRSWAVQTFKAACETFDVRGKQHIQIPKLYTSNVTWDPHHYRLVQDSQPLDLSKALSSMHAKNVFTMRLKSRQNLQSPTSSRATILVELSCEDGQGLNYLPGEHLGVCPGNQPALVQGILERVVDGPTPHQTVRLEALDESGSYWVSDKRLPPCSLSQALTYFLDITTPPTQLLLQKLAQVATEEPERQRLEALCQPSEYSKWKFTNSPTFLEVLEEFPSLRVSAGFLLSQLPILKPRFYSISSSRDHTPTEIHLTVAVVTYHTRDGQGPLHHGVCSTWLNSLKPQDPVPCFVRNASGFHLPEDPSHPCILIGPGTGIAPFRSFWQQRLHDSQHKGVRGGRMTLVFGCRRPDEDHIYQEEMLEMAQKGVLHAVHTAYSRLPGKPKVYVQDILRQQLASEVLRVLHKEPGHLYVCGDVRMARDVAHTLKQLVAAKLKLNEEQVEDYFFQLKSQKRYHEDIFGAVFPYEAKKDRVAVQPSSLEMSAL
Sequence of Nitric oxide synthase 1 (P29475 whole entry): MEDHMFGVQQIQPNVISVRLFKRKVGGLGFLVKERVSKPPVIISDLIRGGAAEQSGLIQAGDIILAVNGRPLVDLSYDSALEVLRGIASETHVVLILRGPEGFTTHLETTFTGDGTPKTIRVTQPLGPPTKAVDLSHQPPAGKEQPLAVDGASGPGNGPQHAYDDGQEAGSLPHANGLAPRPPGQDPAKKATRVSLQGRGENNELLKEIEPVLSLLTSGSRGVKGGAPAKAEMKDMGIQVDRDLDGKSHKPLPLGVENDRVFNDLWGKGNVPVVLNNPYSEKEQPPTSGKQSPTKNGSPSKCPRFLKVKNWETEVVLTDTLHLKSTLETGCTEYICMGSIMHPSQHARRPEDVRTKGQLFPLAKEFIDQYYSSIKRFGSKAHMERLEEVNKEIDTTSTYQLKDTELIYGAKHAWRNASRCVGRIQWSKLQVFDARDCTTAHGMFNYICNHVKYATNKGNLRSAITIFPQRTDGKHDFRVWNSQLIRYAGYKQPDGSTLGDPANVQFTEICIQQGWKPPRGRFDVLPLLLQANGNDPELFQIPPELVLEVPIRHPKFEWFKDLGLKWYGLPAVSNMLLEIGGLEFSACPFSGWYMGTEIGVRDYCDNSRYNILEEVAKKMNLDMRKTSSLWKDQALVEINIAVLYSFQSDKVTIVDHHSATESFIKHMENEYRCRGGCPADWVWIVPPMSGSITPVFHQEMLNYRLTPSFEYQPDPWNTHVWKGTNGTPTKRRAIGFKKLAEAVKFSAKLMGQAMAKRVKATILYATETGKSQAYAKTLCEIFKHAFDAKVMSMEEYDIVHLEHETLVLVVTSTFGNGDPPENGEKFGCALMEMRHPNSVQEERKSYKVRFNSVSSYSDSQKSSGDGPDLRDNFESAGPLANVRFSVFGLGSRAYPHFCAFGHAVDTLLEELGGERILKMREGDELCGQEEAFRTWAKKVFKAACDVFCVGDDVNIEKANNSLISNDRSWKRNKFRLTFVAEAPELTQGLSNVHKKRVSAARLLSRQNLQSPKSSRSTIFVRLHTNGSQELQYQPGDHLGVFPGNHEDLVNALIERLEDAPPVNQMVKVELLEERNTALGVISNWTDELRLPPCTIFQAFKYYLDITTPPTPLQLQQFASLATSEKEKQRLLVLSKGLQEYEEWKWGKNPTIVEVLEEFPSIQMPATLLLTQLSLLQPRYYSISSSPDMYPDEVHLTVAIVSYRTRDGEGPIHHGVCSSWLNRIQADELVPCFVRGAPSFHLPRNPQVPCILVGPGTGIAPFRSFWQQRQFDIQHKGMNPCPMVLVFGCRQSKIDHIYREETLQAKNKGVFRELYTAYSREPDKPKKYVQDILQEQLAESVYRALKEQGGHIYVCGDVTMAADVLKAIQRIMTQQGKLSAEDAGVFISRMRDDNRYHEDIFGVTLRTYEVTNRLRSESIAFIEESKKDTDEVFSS

pKi [1]	pKi (Nitric oxide synthase 1)	pKi (Nitric oxide synthase 3)	Compound
4.09	4.54	4.41	CC(=N)Nc1cccc(CC(N)C(=O)O)c1 (stereo not given)
4.02	5.08	5.06	CNC(N)=Nc1cccc(CC(N)C(=O)O)c1 (stereo not given)
6.22	6.39	6.57	C/N=C(/N)Nc1ccccc1CC(N)C(=O)O (stereo not given)
5.72	5.89	5.80	CC(=N)Nc1ccccc1CC(N)C(=O)O (stereo not given)
4.00	4.36	4.34	N=C(N)Nc1cccc(CC(N)C(=O)O)c1 (stereo not given)
5.59	6.43	6.60	NC(N)=Nc1ccccc1CC(N)C(=O)O (stereo not given)
6.47	–	6.09	CC(=N)NCCC[C@H](N)C(=O)O [L-NIO]
